Earlier results on two compounds are cited in patent US20170015852A1, “INK COMPOSITION” (KERACOL LIMITED, priority 2014, published 2017).

One series relates to human health. The conditions noted are these: toxicological reports; approved food colorants E100, E120, E163.
Another series relates to rats. The conditions noted are these: high doses.

As for `Cc1c(C(=O)O)c(O)cc2c1C(=O)c1c(O)c([C@@H]3O[C@H](CO)[C@@H](O)[C@H](O)[C@H]3O)c(O)c(O)c1C2=O` [carminic acid], the “threat to human health” value in the series on human health is on record as “pose no threat to human health”.
As for `O=C1OC2(c3ccccc31)c1cc(I)c(O)c(I)c1Oc1c2cc(I)c(O)c1I` [erythrosine], the solubility in ethanol was 0.79 % w/v. Further, in the series on rats, the carcinogenicity entry is “cause cancer”.
